Source: PMC6270778, “Novel Cinnamic Acid Derivatives as Antioxidant and Anticancer Agents: Design, Synthesis and Modeling Studies” (Molecules, 2014)

Legend:
[1] = Interaction with the stable radical DPPH
Experimental: The novel acids were studied for the antioxidant activity by the use of the sTable 2,2-diphenyl-1-picrylhydrazyl radical (DPPH) at concentrations 0.05 and 0.1 mM after 20 and 60 min (Table 2). In the DPPH assay, the dominant chemical reaction involved is the reduction of the DPPH radical by single electron transfer SET from the antioxidant. Phenolic compounds eg. […] The compounds presented reducing abilities which ranged nearly 29% (4ii), small differences were found among the compounds with time and concentration. […] Due to steric reasons the interaction of DPPH with the tested compounds is low.
To a solution of DPPH in absolute ethanol the appropriate volume of the compounds (0.05 and 0.1 mM final concentrations) dissolved in DMSO was added. The absorbance was recorded at 517 nm after 20 and 60 min at room temperature (Table 3).

[2] = ABTS+ decolorization assay; conditions: 0.1 mM
Experimental: The ABTS^•+ is derived from the oxidation of ABTS by potassium persulfate. It is a decolorization assay. The addition of electron-donating antioxidants leads to ABTS^•+ reduction. The chemistry taking place involves the direct generation of the ABTS^•+ with no involvement of an intermediary radical.
In this assay, ethanol is used for the dilution of the ABTS^+• solution. ABTS is dissolved in water to a 7 mM and reacts with 2.45 mM […] to produce the ABTS radical cation (ABTS^+•) by allowing the mixture to stand in the dark at room temperature for 12–16 h before use. Ten μL of diluted ABTS^+• solution (734 nm) is added to 10 μL of antioxidant compounds or Trolox standards (final concentration 0–0.1 mM) in ethanol and the absorbance is measured at 30 °C exactly 1 min after the initial mixing (Table 3).

[3] = Inhibition of linoleic acid peroxidation (AAPH); conditions: 0.1 mM
Text: For the in vitro study of the free radical production, azo compounds generating free radicals through spontaneous thermal decomposition are used. The water soluble 2,2'-azobis(2-amidinopropane) hydrochloride (AAPH) is recommended as appropriate for measuring radical-scavenging activity in vitro. The activity of the peroxyl radicals produced by the action of AAPH greatly resembles to cellular activities such as lipid peroxidation. The phenyl substituted acids presented remarkable activity at 0.1 mM concentration (84%–92%) compared to the non-substituted derivatives (20%–63%).
For initiating the free radical, 2,2'-azobis(2-amidinopropane) dihydrochloride (AAPH) is used. The final solution in the UV cuvette consisted of ten microliters of the 16 mM linoleate sodium dispersion 0.93 mL of 0.05 M phosphate buffer, pH 7.4, thermostatted at 37 °C. 50 μL of 40 mM AAPH solution was added as a free radical initiator at 37 °C under air and 10 μL of the tested compounds. The oxidation of linoleic acid sodium salt results a conjugated diene hydroperoxide. The reaction is monitored at 234 nm (Table 3).

[4] = Hydroxyl radicals scavenging activity (Fe3+/ascorbic acid system, competition with DMSO); conditions: 0.1 mM; no = no action under the used experimental conditions
Experimental: Thus we evaluated our acids for their competition with DMSO for ˙OH radicals was measured, hydroxyl radicals were produced by the Fe^3+/ascorbic acid system and expressed as percent inhibition of formaldehyde formation at 0.1 mM concentration (Table 3).
The hydroxyl radicals were produced by the Fe ^3+/ascorbic acid system. EDTA (0.1 mM), Fe ^3+ (167 μM), DMSO (33 mM) in phosphate buffer (50 mM, pH 7.4), the tested compounds (0.1 mM) and ascorbic acid (10 mM) were mixed in test tubes. The solutions were incubated at 37 °C for 30 min. The reaction was stopped by CCl3COOH (17% w/v) (Table 4) and the % scavenging activity of the tested compounds for hydroxyl radicals was given.

[5] = Superoxide radical scavenging activity (non-enzymatic, PMS/NADH, NBT method); conditions: 0.1 mM; no = no action under the used experimental conditions
Experimental: The superoxide anion radical (O2^−·) is less toxic than the hydroxyl radical, but still being one of the most known toxic ROS. Two different experimental assays are followed for the determination of superoxide anion radical scavenging activity: (i) one involves an enzymatic production of superoxide anions and (ii) the other is supported by a non- enzymatic procedure. Herein the test is performed at 0.1 mM concentration, generating superoxide anion radicals by a non-enzymatically assay (Table 3). Compound 1i presented the highest activity, followed by compound 1ii (75% and 50%, respectively).
Superoxide radicals were produced non-enzymatically by mixing PMS, NADH and air–oxygen. The nitroblue tetrazolium method was used for the estimation of the produced radicals. The reaction mixture containing compounds (0.1 mM), 3 μM PMS, 78 μM NADH, and 25 μM NBT in 19 μM phosphate buffer pH 7.4 was incubated for 2 min at room temperature. The acrylic acids were preincubated for 2 min before adding NADH (Table 4) and the absorption was recorded at 560 nm.

Which “RA % (±SD), DPPH” value ([1]; 0.05 mM, 20 min) does the source give for CC(Cc1ccc(O)c(O)c1)C(C)Cc1ccc(O)c(O)c1 (stereo not drawn) [NDGA, nordihydroguaretic acid, reference compound] here?
Its value is 85 ± 1.6%.

What about the “RA % (±SD), DPPH” value ([1]; 0.05 mM, 60 min) of the same compound?
The value was 83 ± 1.1%.

And the “RA % (±SD), DPPH” value ([1]; 0.1 mM, 20 min)?
The value was 81 ± 0.8%.

What about the “RA % (±SD), DPPH” value ([1]; 0.1 mM, 60 min) of the same compound?
The value was 83 ± 0.7%.

Which results are given for Cc1c(C)c2c(c(C)c1O)CCC(C)(C(=O)O)O2 (stereo not drawn) [Trolox, reference compound]?
ABTS+· (%) (±SD) [2]: 88 ± 1.7%; AAPH (%) (±SD), inhibition of linoleic acid peroxidation [3]: 63 ± 1.3%; HO (%) (±SD) [4]: 73 ± 1.0%

For O=C1O[C@H]([C@@H](O)CO)C(O)=C1O [Ascorbic Acid, reference compound], which “ABTS+· (%) (±SD)” value [2] is on record?
The value was 96 ± 0.9%.

With O=C(O)/C=C/c1ccc(O)c(O)c1 [Caffeic acid, caffeic acid, reference compound] as the compound, how does the “O2−· (%) (±SD)” value [5] read?
The value was 46 ± 0.5%.
